Assay results as given in patent US12550899B2, “Topramezone derivative and use thereof” (priority 2023, dated 2026).

How the values were obtained:
Format in all cases: in vivo
[1] = system: test weeds (grassy weeds, sedge, broadleaf weeds); assay: Laboratory bioactivity efficacy test 2.1, symptoms on the test weeds; details: test 2.1 weeds
From the text: (§1) Refer to the “Pesticides guidelines for laboratory bioactivity tests Part 4: Foliar spray application test for herbicide activity, NY/T 1155.4-2006”.
(§2) • grassy weeds: Setaria viridis, Chloris virgata; • sedge: Cyperus rotundus; • Broadleaf weeds: Amaranthus retroflexus, Chenopodium album, Acalypha australis, Commelina communis, Convolvulus arvensis, Cirsium setosum, and Eclipta prostrata. 2.1.3 Test Conditions
(§3) The soil used for the test was a mixture of surface 20 cm loam and vermiculite, mixed in a volume ratio of 3:1 to form a culture soil. The test corn was cultured in a glass greenhouse with a temperature ranging from 25° C. to 35° C. and under natural light.
(§4) A measured quantity of weed seeds were sown in plastic pots with a diameter of 9 cm, and covered with 1-2 mm of soil. The ports were then placed in enamel trays filled with water, and watered by bottom irrigation. After sowing, the pots were transferred to the glass greenhouse for cultivation and growth.
(§5) Five dosages were set for Compound I, Compound II and the control herbicide Topramezone, which were 3.75, 7.5, 15, 30 and 60 grams of active ingredient per hectare respectively. In addition, a blank control was also prepared.
(§6) The required amount of the herbicide was accurately measured out, an appropriate amount of emulsifier and organic solvent were added to dissolve the herbicide, and then a certain amount of water was added therein until the herbicide was diluted to the required dosage by using the serial dilution method for standby.
(§7) The fresh weight of each treatment was surveyed 14 days after the application of the herbicide. The fresh weight control efficacy was calculated according to the following formula: fresh weight control efficacy (%)=(control fresh weight−treatment fresh weight)/control fresh weight×100.

Cyperus rotundus = assay: Laboratory bioactivity efficacy test 2.1 (foliar spray); details: for GR50 / GR90: fresh weight control efficacy 14 days after application
From the text: as §1, §2, §3, §4, §5, §6, §7
(§8) A DPS statistical software was used to conduct regression analysis on the logarithmic values of the herbicide dosage and the probit values of the corn fresh weight control efficacy, and the correlation coefficient, GR50, GR90, and the 95% confidence interval were calculated.

Amaranthus retroflexus = assay: as above; details: for GR50 / GR90: fresh weight control efficacy 14 days after application
From the text: as §1, §2, §3, §4, §5, §6, §7, §8

[2] = system: grassy weeds and broadleaf weeds; assay: Laboratory bioactivity efficacy test 2.2, visual observation of weeds
Procedure: • grassy weeds: Digitaria sanguinalis, Eleusine indica, Echinochloa crusgalli; • Broadleaf weeds: Portulaca oleracea, Abutilon theophrasti medicus. 2.2.2 Test Conditions
The soil used for the test was a mixture of surface 20 cm loam and vermiculite, mixed in a volume ratio of 3:1 to form a culture soil. The test weeds were cultured in a glass greenhouse with a temperature ranging from 25° C. to 35° C. and under natural light.
Quantified seeds of Digitaria sanguinalis, Eleusine indica, Echinochloa crusgalli, Portulaca oleracea, and Abutilon theophrasti medicus were sown in plastic pots with a diameter of 9 cm, and covered with 1-2 mm of soil. The ports were then placed in enamel trays filled with water, and watered by bottom irrigation. After the water seeped to the soil surface, the pots were transferred to the glass greenhouse for standby.
as §5
The required amount of the herbicide was accurately measured out and directly added with water, which was diluted to the required dosage by using the serial dilution method for standby.
(§9) The test was conducted on grassy weeds at the two-leaf and one-heart stage, Abutilon theophrasti medicus at the 2-true-leaf stage, and Portulaca oleracea at the 3-5-leaf stage, with the stems and leaves both sprayed uniformly. The ASS-4 automatic control spraying system with a fan-shaped nozzle was used indoors for herbicide application. Depending on the nozzle pressure and flow rate, 50 mL of herbicide solution was applied to a spraying area of 1.1 m^2 (which was equivalent to the water consumption of 30 L per mu). The system's operating speed was calibrated. The plastic pots to be treated were arranged evenly on the spraying platform to ensure uniform treatment. The spray pressure was set to 0.35 MPa, and the flow rate of the fan-shaped nozzle was set to 800 mL/min. The spraying was carried out in sequence from the low dosage to the high dosage. Each treatment was repeated two to four times.
(§10) The herbicide was applied once. After spraying, the pots were air-dried for one day and then placed in the glass greenhouse. Regular watering was conducted to maintain moisture.
The damage symptoms of the weeds (such as growth inhibition, chlorosis, malformation, etc.) were carefully recorded at 3, 7, 10, and 20 days after herbicide application. A visual comparison of the herbicide effectiveness was made. At 20 days post-application, the fresh weight of the aboveground parts of the weeds from each treatment group was measured, and the fresh weight control efficacy was calculated.

Corn (Sweet Corn) = assay: Corn safety laboratory test; details: in vivo
Procedure: (§11) Three corn varieties: Zhengdan 958, white waxy corn, and sweet corn (Runhua sweet corn).
as §3
(§12) A measured quantity of corn seeds were sown in plastic pots with a diameter of 15 cm, and covered with 2-3 cm of soil. The ports were then placed in enamel trays filled with water, and watered by bottom irrigation. After sowing, the pots were transferred to the glass greenhouse for cultivation and growth.
(§13) In the corn safety test, dosages were set for the two Compounds (Compound I of the present invention and Compound II of the present invention) and the control herbicide Topramezone, which were 15, 30, 60, and 120 grams of active ingredient per hectare respectively. In addition, a blank control was also prepared.
as §6
(§14) Corn stems and leaves were uniformly sprayed at the 3-4-leaf stage.
as §9, with “ASS-3” for “test was conducted on grassy weeds at the two-leaf and one-heart stage, Abutilon theophrasti medicus at the 2-true-leaf stage, and Portulaca oleracea at the 3-5-leaf stage, with the stems and leaves both sprayed uniformly. The ASS-4”, “three” for “two to four”
as §10
(§15) After application of the herbicide, whether there were any phytotoxic symptoms in the corn for each treatment was recorded. If yes, the phytotoxicity symptoms and grade were recorded in detail. 15 days after application, the fresh weight of the corn in each treatment was measured and the fresh weight control efficacy was calculated to assess the safety of the herbicide on the corn.
(§16) The treatment results were calculated according to the following formula: fresh weight control efficacy (%)=(control fresh weight−treatment fresh weight)/control fresh weight×100.

Corn (White Waxy Corn) = assay: Corn safety laboratory test; details: in vivo
Procedure: as §11, §3, §12, §13, §6, §14
as §9, with “ASS-3” for “test was conducted on grassy weeds at the two-leaf and one-heart stage, Abutilon theophrasti medicus at the 2-true-leaf stage, and Portulaca oleracea at the 3-5-leaf stage, with the stems and leaves both sprayed uniformly. The ASS-4”, “three” for “two to four”
as §10, §15, §16

Corn (Zhengdan 958) = assay: Corn safety laboratory test; details: in vivo
Procedure: as §11, §3, §12, §13, §6, §14
as §9, with “ASS-3” for “test was conducted on grassy weeds at the two-leaf and one-heart stage, Abutilon theophrasti medicus at the 2-true-leaf stage, and Portulaca oleracea at the 3-5-leaf stage, with the stems and leaves both sprayed uniformly. The ASS-4”, “three” for “two to four”
as §10, §15, §16

[3] = 3 to 7 days after application, grassy weeds and broadleaf weeds like Portulaca oleracea

Structure (SMILES) | Symptoms on the test weeds [1] | Control efficacy compared with Topramezone (in words) (Cyperus rotundus) | GR50 (Cyperus rotundus) [g a.i./ha] | GR90 (Cyperus rotundus) [g a.i./ha] | Control efficacy compared with Topramezone (in words) (Amaranthus retroflexus) | Efficacy relative to that of Topramezone (Amaranthus retroflexus) | GR50 (Amaranthus retroflexus) [g a.i./ha] | GR90 (Amaranthus retroflexus) [g a.i./ha] | Visual observation of weeds [2, 3] | Visual observation of weeds ([2]; 10 days after application) | Visual observation of weeds ([2]; 20 days after application) | Corn Growth Status (Corn (Sweet Corn)) | Growth of corn / phytotoxicity (in words) (Corn (Sweet Corn)) | Corn Growth Status (Corn (White Waxy Corn)) | Growth of corn / phytotoxicity (in words) (Corn (White Waxy Corn)) | Corn Growth Status (Corn (Zhengdan 958)) | Growth of corn / phytotoxicity (in words) (Corn (Zhengdan 958)) | Safety to corn (in words) (Corn (Sweet Corn)) | Safety to corn (in words) (Corn (White Waxy Corn))
COC(=O)OC(C)Oc1c(C(=O)c2ccc(S(C)(=O)=O)c(C3=NOCC3)c2C)cnn1C (stereo not shown) [Compound I, 1-((4-(3-(4,5-dihydroisoxazol-3-yl)-2-methyl-4-(methylsulfonyl)benzoyl)-1-methyl-1H-pyrazol-5-yl)oxy)ethyl methyl carbonate] | clear pesticidal efficacy symptoms | better control efficacy | 11.78 | 29.57 | significantly better control efficacy | approximately 2 times | 2.86 | 5.64 | gradually became whitened and withered | excellent treatment effects | dried up and died | Good, Normal Growth | normal, without causing any phytotoxicity | Good, Normal Growth | normal, without causing any phytotoxicity | Good, Normal Growth | normal, without causing any phytotoxicity | – | –
Cc1c(C(=O)c2cnn(C)c2OC(=O)C(C)(C)C)ccc(S(C)(=O)=O)c1C1=NOCC1 [Compound II, 4-(3-(4,5-dihydroisoxazol-3-yl)-2-methyl-4-(methylsulfonyl)benzoyl)-1-methyl-1H-pyrazol-5-yl pivalate] | clear pesticidal efficacy symptoms | – | 15.68 | 39.11 | – | – | 4.64 | 11.19 | gradually became whitened and withered | excellent treatment effects | dried up and died | Good, Normal Growth | – | Good, Normal Growth | – | Good, Normal Growth | normal, without causing any phytotoxicity | safe | safe
